Laboratory results from ChEMBL document CHEMBL1201862, “PubChem BioAssay data set” (2004).
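Five concentrations, 48 hours, 96-well plates. GI50 = concentration required for 50% inhibition of growth.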 Active and inactive are the calls of the source. Cut-off read from the data, not from the text of the source: active = GI50 up to about 1.1 µM and inactive = higher.

Legend:
Assay in all cases: inhibition of tumour cell growth, NCI panel, 48 h
[1] = test system: SNB-75
[2] = test system: UACC-257
[3] = test system: HCT-116
[4] = test system: RXF 393
[5] = test system: A549
[6] = test system: IGROV-1
[7] = test system: SK-MEL-2
[8] = test system: CCRF-CEM
[9] = test system: HT-29
[10] = test system: T47D
[11] = test system: 786-0
[12] = test system: SF-539
[13] = test system: NCI-H226
[14] = test system: HOP-92
[15] = test system: U-251
[16] = test system: SK-MEL-28
[17] = test system: MDA-MB-435
[18] = test system: Malme-3M
[19] = test system: TK-10
[20] = test system: Hs-578T
[21] = test system: KM12
[22] = test system: NCI/ADR-RES
[23] = test system: SNB-19
[24] = test system: UO-31
[25] = test system: PC-3
[26] = test system: CAKI-1
[27] = test system: HL-60
[28] = test system: SF-268
[29] = test system: HCC 2998
[30] = test system: ACHN
[31] = test system: SF-295
[32] = test system: OVCAR-5
[33] = test system: UACC-62
[34] = test system: SN12C
[35] = test system: DU-145
[36] = test system: COLO 205
[37] = test system: MOLT-4
[38] = test system: MCF7
[39] = test system: M14
[40] = test system: LOX IMVI
[41] = test system: SK-OV-3
[42] = test system: OVCAR-8
[43] = test system: MDA-MB-231
[44] = test system: A498
[45] = test system: HCT-15
[46] = test system: NCI-H460
[47] = test system: BT-549
[48] = test system: NCI-H23
[49] = test system: MDA-N
[50] = test system: OVCAR-3
[51] = test system: EKVX
[52] = test system: K562
[53] = test system: SK-MEL-5
[54] = test system: SW-620
[55] = test system: HOP-62
[56] = test system: NCI-H522
[57] = test system: RPMI-8226
[58] = test system: OVCAR-4
[59] = test system: SR

SMILES: CC(C)C1OC2(C)OC(=N)C1(C#N)C(C#N)(C#N)C2C (configuration not stated)
- GI50 [1]: 32.1 µM (inactive)
- GI50 [2]: 28.5 µM (inactive)
- GI50 [3]: 27.2 µM (inactive)
- GI50 [4]: 36.2 µM (inactive)
- GI50 [5]: > 100 µM (inactive)
- GI50 [6]: > 10 µM (inactive)
- GI50 [7]: 17.6 µM (inactive)
- GI50 [8]: 16 µM (inactive)
- GI50 [9]: 16.3 µM (inactive)
- GI50 [10]: 15 µM (inactive)
- GI50 [11]: 19.4 µM (inactive)
- GI50 [12]: 24.6 µM (inactive)
- GI50 [13]: > 100 µM (inactive)
- GI50 [14]: 17.7 µM (inactive)
- GI50 [15]: 24.2 µM (inactive)
- GI50 [16]: 37.1 µM (inactive)
- GI50 [17]: 37.8 µM (inactive)
- GI50 [18]: 19.6 µM (inactive)
- GI50 [19]: 47.1 µM (inactive)
- GI50 [20]: 24.3 µM (inactive)
- GI50 [21]: 52 µM (inactive)
- GI50 [22]: 54.8 µM (inactive)
- GI50 [23]: > 10 µM (inactive)
- GI50 [24]: 45.7 µM (inactive)
- GI50 [25]: 24.6 µM (inactive)
- GI50 [26]: 10.9 µM (inactive)
- GI50 [27]: 15.9 µM (inactive)
- GI50 [28]: 20.1 µM (inactive)
- GI50 [29]: 13.7 µM (inactive)
- GI50 [30]: 36 µM (inactive)
- GI50 [31]: > 100 µM (inactive)
- GI50 [32]: 25.6 µM (inactive)
- GI50 [33]: 27.6 µM (inactive)
- GI50 [34]: 13.9 µM (inactive)
- GI50 [35]: 28.4 µM (inactive)
- GI50 [36]: 14.5 µM (inactive)
- GI50 [37]: 30.1 µM (inactive)
- GI50 [38]: 18.7 µM (inactive)
- GI50 [39]: 14.6 µM (inactive)
- GI50 [40]: 19 µM (inactive)
- GI50 [41]: > 100 µM (inactive)
- GI50 [42]: 25.8 µM (inactive)
- GI50 [43]: 15.4 µM (inactive)
- GI50 [44]: 67.5 µM (inactive)
- GI50 [45]: 12.8 µM
- GI50 [46]: 15.8 µM (inactive)
- GI50 [47]: 51.6 µM (inactive)
- GI50 [48]: 30.6 µM (inactive)
- GI50 [49]: 15.2 µM (inactive)
- GI50 [50]: 17.7 µM (inactive)
- GI50 [51]: 18.7 µM (inactive)
- GI50 [52]: 30 µM (inactive)
- GI50 [53]: 13.7 µM (inactive)
- GI50 [54]: 26.6 µM (inactive)

SMILES: Cn1c(NNc2ccccc2)cc(=O)[nH]c1=O
- GI50 [1]: 81.7 µM (inactive)
- GI50 [2]: 95.7 µM (inactive)
- GI50 [55]: > 100 µM (inactive)
- GI50 [3]: 42.5 µM (inactive)
- GI50 [4]: 61.8 µM (inactive)
- GI50 [5]: 37.7 µM (inactive)
- GI50 [6]: 48.2 µM (inactive)
- GI50 [56]: 19.1 µM (inactive)
- GI50 [7]: 3.63 µM (inactive)
- GI50 [8]: 20.6 µM (inactive)
- GI50 [9]: 86.9 µM (inactive)
- GI50 [10]: 30.9 µM (inactive)
- GI50 [11]: 20.5 µM (inactive)
- GI50 [12]: 29.3 µM (inactive)
- GI50 [13]: > 100 µM (inactive)
- GI50 [14]: 63.8 µM (inactive)
- GI50 [15]: 53.5 µM (inactive)
- GI50 [16]: 37.8 µM (inactive)
- GI50 [17]: 20.9 µM (inactive)
- GI50 [18]: 57.8 µM (inactive)
- GI50 [19]: > 100 µM (inactive)
- GI50 [20]: > 100 µM (inactive)
- GI50 [21]: 15.2 µM (inactive)
- GI50 [22]: 35.8 µM (inactive)
- GI50 [23]: > 100 µM (inactive)
- GI50 [24]: 28.2 µM (inactive)
- GI50 [25]: 38.6 µM (inactive)
- GI50 [26]: 29.9 µM (inactive)
- GI50 [57]: 35.3 µM (inactive)
- GI50 [27]: 32.7 µM (inactive)
- GI50 [28]: 34.1 µM (inactive)
- GI50 [29]: 27.3 µM (inactive)
- GI50 [30]: 4.25 µM (inactive)
- GI50 [31]: 21.8 µM (inactive)
- GI50 [32]: > 100 µM (inactive)
- GI50 [33]: 36.1 µM (inactive)
- GI50 [34]: > 100 µM (inactive)
- GI50 [35]: > 100 µM (inactive)
- GI50 [36]: 36.9 µM (inactive)
- GI50 [37]: 39.3 µM (inactive)
- GI50 [38]: 33.8 µM (inactive)
- GI50 [39]: 33.9 µM (inactive)
- GI50 [40]: 20 µM (inactive)
- GI50 [41]: 72.6 µM (inactive)
- GI50 [42]: 29.8 µM (inactive)
- GI50 [43]: 28.9 µM (inactive)
- GI50 [45]: 16.3 µM
- GI50 [46]: 51.9 µM (inactive)
- GI50 [47]: > 100 µM (inactive)
- GI50 [48]: > 100 µM (inactive)
- GI50 [49]: 20.5 µM (inactive)
- GI50 [50]: 23.2 µM (inactive)
- GI50 [58]: 55.8 µM (inactive)
- GI50 [51]: > 100 µM (inactive)
- GI50 [59]: 22.6 µM (inactive)
- GI50 [52]: 36.7 µM (inactive)
- GI50 [53]: 25.6 µM (inactive)
- GI50 [54]: 62.1 µM (inactive)
